We go through 21 compounds from patent publication US20250042881A1, “CCR6 RECEPTOR MODULATORS” (Idorsia Pharmaceuticals Ltd, priority 2021, published 2025).

For orientation: IC50 means the midpoint of a concentration-inhibition curve.

The target of this experiment is T1, human CCR6 (Homo sapiens, UniProt P51684).
T1 construct: expressed in transfected cells; host or cells: HEK-293
T1 sequence (P51684 1-374): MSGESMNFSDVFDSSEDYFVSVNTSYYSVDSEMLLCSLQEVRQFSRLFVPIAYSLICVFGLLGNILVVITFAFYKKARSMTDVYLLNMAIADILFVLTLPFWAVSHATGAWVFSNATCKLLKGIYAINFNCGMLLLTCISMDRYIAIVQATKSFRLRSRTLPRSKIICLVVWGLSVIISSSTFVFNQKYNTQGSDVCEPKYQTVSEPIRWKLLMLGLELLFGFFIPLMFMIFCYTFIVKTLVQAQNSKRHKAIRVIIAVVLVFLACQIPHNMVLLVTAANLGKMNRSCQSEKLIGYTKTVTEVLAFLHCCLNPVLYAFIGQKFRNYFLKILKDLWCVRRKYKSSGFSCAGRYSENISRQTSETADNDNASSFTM
Kind of experiment: FLIPR assay: inhibition of CCL20-induced calcium signal in HEK-293 cells expressing human CCR6. The experiment is classed as cell-based. Particulars: engineered HEK-293 cells expressing human CCR6; agonist CCL20 10 nM; 30 min preincubation; Fluo-8-AM; mean values if determined several times. The procedure: FLIPR assay: The bioactivity of compounds is tested in a fluorometric imaging plate reader (FLIPR: Molecular Devices) using engineered HEK-293 cells expressing the human CCR6 (GenBank: AY242126). Frozen cells are plated on Poly-L-Lysine precoated 384-well plates 2 days prior to bioassay in DMEM medium supplemented with 10% FCS and 1% Penicillin-Streptomycin. At the day of bioassay, cell supernatant is discarded and cells are dye loaded for 30 minutes at room temperature in the dark with Fluo-8-AM (Focus Biomolecules) in Hanks Balanced Salt Solution (Gibco), buffered with 20 mM Hepes at pH 6.75 and supplemented with 0.05% BSA. This buffer, but lacking the dye, is also used for washing and compound dilution steps (assay buffer). Cells are washed free of excess dye with a wash-station (Biotek), leaving 40 microliter of assay buffer at the end. Cells were incubated for 15 minutes at room temperature in the dark, before adding compounds. Stock solutions of test compounds are made up at a concentration of 10 mM in DMSO, and serially diluted first in DMSO and then transferred in assay buffer to concentrations required for inhibition dose response curves. After a 45 minute incubation period in assay buffer at room temperature, 10 microliters of each compound dilution are transferred from a compound plate to the plate containing the recombinant cells in the FLIPR instrument according to the manufacturer's instructions. After cells and compounds were preincubated for 30 minutes at room temperature in the dark, 10 microliter agonist CCL20 (Peprotech) at a final concentration of 10 nM is added, again using the FLIPR instrument. Changes in fluorescence are monitored before and after addition of the test compounds and agonist. Emission peak values above base level after CCL20 addition are exported after base line subtraction. The calculated IC50 values may fluctuate depending on the daily assay performance. Fluctuations of this kind are known to those skilled in the art. In the case where IC50 values have been determined several times for the same compound, mean values are given.
For the compound `CC(C)c1ccc([C@](O)(c2cncc(-c3nc(C4CCOCC4)n(CC(C)(F)F)n3)c2)C2(C)CN(C)C2)cc1` [Example 22, (R)-{5-[1-(2,2-Difluoro-propyl)-5-(tetrahydro-pyran-4-yl)-1H-[1,2,4]triazol-3-yl]-pyridin-3-yl}-(1,3-dimethyl-azetidin-3-yl)-(4-isopropyl-phenyl)-methanol], the IC50 turned out to be 81.6 nM.

In the case of `CC(C)c1ccc([C@](O)(c2cnc(F)c(-c3nc([C@H]4CC[C@H](O)CC4)n(C4CC4)n3)c2)C2(C)CN(C)C2)cc1` [Example 39, 4-(2-Cyclopropyl-5-{5-[(R)-(1,3-dimethyl-azetidin-3-yl)-hydroxy-(4-isopropyl-phenyl)-methyl]-2-fluoro-pyridin-3-yl}-2H-[1,2,4]triazol-3-yl)-trans-cyclohexanol], the IC50 was determined as 76.6 nM.

Take `CC(C)c1ccc([C@](O)(c2cncc(-c3nc(C4CCOCC4)n(C4CC4)n3)c2)C2(C)CN(CC(F)F)C2)cc1` [Example 35, (R)-{5-[1-Cyclopropyl-5-(tetrahydro-pyran-4-yl)-1H-[1,2,4]triazol-3-yl]-pyridin-3-yl}-[1-(2,2-difluoro-ethyl)-3-methyl-azetidin-3-yl]-(4-isopropyl-phenyl)-methanol]: the IC50 is 72.6 nM.

`CC(C)c1ccc([C@](O)(c2cncc(-c3nc(C(C)(C)O)n(C4CC4)n3)c2)C2(C)CNC2)cc1` [Example 37, 2-(2-Cyclopropyl-5-{5-[(R)-hydroxy-(4-isopropyl-phenyl)-(3-methyl-azetidin-3-yl)-methyl]-pyridin-3-yl}-2H-[1,2,4]triazol-3-yl)-propan-2-ol]: the half-maximal inhibitory concentration (IC50) came out at 104 nM.

Take `CC(C)c1ccc([C@](O)(c2cncc(-c3nc(C4CCOCC4)n(C4CCCC4)n3)c2)C2(C)CN(C)C2)cc1` [Example 20, (R)-{5-[1-Cyclopentyl-5-(tetrahydro-pyran-4-yl)-1H-[1,2,4]triazol-3-yl]-pyridin-3-yl}-(1,3-dimethyl-azetidin-3-yl)-(4-isopropyl-phenyl)-methanol]: the IC50 was determined as 37.3 nM.

For `CC(C)c1ccc([C@](O)(c2cncc(-c3nc(C4CCOCC4)n(C4CC4)n3)c2)C2(C)CN(C)C2)cc1` [Example 14, (R)-{5-[1-Cyclopropyl-5-(tetrahydro-pyran-4-yl)-1H-[1,2,4]triazol-3-yl]-pyridin-3-yl}-(1,3-dimethyl-azetidin-3-yl)-(4-isopropyl-phenyl)-methanol], the IC50 amounted to 118 nM.

On to `CN1CC(C)([C@](O)(c2ccc(C(C)(C)C)cc2)c2cncc(-c3nc(C4CCOCC4)n(C4CC4)n3)c2)C1` [Example 2, (R)-(4-tert-Butyl-phenyl)-{5-[1-cyclopropyl-5-(tetrahydro-pyran-4-yl)-1H-[1,2,4]triazol-3-yl]-pyridin-3-yl}-(1,3-dimethyl-azetidin-3-yl)-methanol], for which the IC50 was determined as 81.1 nM.

On to `CCCc1ccc([C@](O)(c2cncc(-c3nc(C4CCOCC4)n(C4CC4)n3)c2)C2(C)CN(C)C2)cc1` [Example 7, (R)-{5-[1-Cyclopropyl-5-(tetrahydro-pyran-4-yl)-1H-[1,2,4]triazol-3-yl]-pyridin-3-yl}-(1,3-dimethyl-azetidin-3-yl)-(4-propyl-phenyl)-methanol], for which the concentration for half-maximal inhibition (IC50) was determined as 44.4 nM.

For `CC(C)c1ccc([C@](O)(c2cnnc(-c3nc(C4CCOCC4)n(C(C)C)n3)c2)C2(C)CN(C)C2)cc1` [Example 51, (R)-(1,3-Dimethyl-azetidin-3-yl)-(4-isopropyl-phenyl)-{6-[1-isopropyl-5-(tetrahydro-pyran-4-yl)-1H-[1,2,4]triazol-3-yl]-pyridazin-4-yl}-methanol], the IC50 amounted to 578 nM.

Turning to `CC(C)c1ccc([C@](O)(c2cncc(-c3nc(C(C)(C)O)n(C(C)C)n3)c2)C2(C)CN(C)C2)cc1` [Example 27, 2-(5-{5-[(R)-(1,3-Dimethyl-azetidin-3-yl)-hydroxy-(4-isopropyl-phenyl)-methyl]-pyridin-3-yl}-2-isopropyl-2H-[1,2,4]triazol-3-yl)-propan-2-ol], the IC50 was 59.5 nM.

For `CC(C)c1ccc([C@](O)(c2cncc(-c3nc(C(C)(C)O)n(C4CC4)n3)c2)C2(C)CN(C)C2)cc1` [Example 26, 2-(2-Cyclopropyl-5-{5-[(R)-(1,3-dimethyl-azetidin-3-yl)-hydroxy-(4-isopropyl-phenyl)-methyl]-pyridin-3-yl}-2H-[1,2,4]triazol-3-yl)-propan-2-ol], the IC50 was found to be 46.4 nM.

As for `CC(C)c1ccc([C@](O)(c2cncc(-c3nc([C@H]4CC[C@H](O)CC4)n(C4CC4)n3)c2)C2(C)CN(C)C2)cc1` [Example 8, trans-4-(2-Cyclopropyl-5-{5-[(R)-(1,3-dimethyl-azetidin-3-yl)-hydroxy-(4-isopropyl-phenyl)-methyl]-pyridin-3-yl}-2H-[1,2,4]triazol-3-yl)-cyclohexanol], the IC50 worked out at 98.5 nM.

Regarding `CC(=O)N1CCC(c2nc(-c3cncc([C@@](O)(c4ccc(C(C)C)cc4)C4(C)CN(C)C4)c3)nn2C(C)C)CC1` [Example 33, 1-[4-(5-{5-[(R)-(1,3-Dimethyl-azetidin-3-yl)-hydroxy-(4-isopropyl-phenyl)-methyl]-pyridin-3-yl}-2-isopropyl-2H-[1,2,4]triazol-3-yl)-piperidin-1-yl]-ethanone], the IC50 was 182 nM.

Take `CC(C)c1ccc([C@](O)(c2cncc(-c3nc(C4(O)CCOCC4)n(C(C)C)n3)c2)C2(C)CN(C)C2)cc1` [Example 31, 4-(5-{5-[(R)-(1,3-Dimethyl-azetidin-3-yl)-hydroxy-(4-isopropyl-phenyl)-methyl]-pyridin-3-yl}-2-isopropyl-2H-[1,2,4]triazol-3-yl)-tetrahydro-pyran-4-ol]: the IC50 is 86.3 nM.

With `CC(C)c1ccc([C@](O)(c2cncc(-c3nc(C4CCOCC4)n(C4CCC4)n3)c2)C2(C)CN(C)C2)cc1` [Example 23, (R)-{5-[1-Cyclobutyl-5-(tetrahydro-pyran-4-yl)-1H-[1,2,4]triazol-3-yl]-pyridin-3-yl}-(1,3-dimethyl-azetidin-3-yl)-(4-isopropyl-phenyl)-methanol], the IC50 is 57.8 nM.

Consider `CC(C)c1ccc([C@](O)(c2cncc(-c3nc(C4CCOCC4)n(C4CC4)n3)c2)C2(C)CN(C3CC3)C2)cc1` [Example 49, (R)-(1-Cyclopropyl-3-methyl-azetidin-3-yl)-{5-[1-cyclopropyl-5-(tetrahydro-pyran-4-yl)-1H-[1,2,4]triazol-3-yl]-pyridin-3-yl}-(4-isopropyl-phenyl)-methanol], for which the IC50 was 55.8 nM.

In the case of `CC(C)c1ccc([C@](O)(c2cncc(-c3nc(C45CC(CO)(C4)C5)n(C(C)C)n3)c2)C2(C)CN(C)C2)cc1` [Example 29, (R)-(1,3-Dimethyl-azetidin-3-yl)-{5-[5-(3-hydroxymethyl-bicyclo[1.1.1]pent-1-yl)-1-isopropyl-1H-[1,2,4]triazol-3-yl]-pyridin-3-yl}-(4-isopropyl-phenyl)-methanol], the IC50 is 78.7 nM.

Regarding `CC(C)c1ccc([C@](O)(c2cncc(-c3nc(C4CCNC(=O)C4)n(C(C)C)n3)c2)C2(C)CN(C)C2)cc1` (stereo partly drawn) [Example 46, 4-(5-{5-[(R)-(1,3-Dimethyl-azetidin-3-yl)-hydroxy-(4-isopropyl-phenyl)-methyl]-pyridin-3-yl}-2-isopropyl-2H-[1,2,4]triazol-3-yl)-piperidin-2-one], the IC50 is 161 nM.

Consider `CC(C)c1ccc([C@](O)(c2cncc(-c3nc(C4CCOCC4)n(C)n3)c2)C2(C)CN(C)C2)cc1` [Example 16, (R)-(1,3-Dimethyl-azetidin-3-yl)-(4-isopropyl-phenyl)-{5-[1-methyl-5-(tetrahydro-pyran-4-yl)-1H-[1,2,4]triazol-3-yl]-pyridin-3-yl}-methanol], for which the IC50 worked out at 221 nM.

On to `CC(=O)N1CCC(O)(c2nc(-c3cncc([C@@](O)(c4ccc(C(C)C)cc4)C4(C)CN(C)C4)c3)nn2C(C)C)CC1` [Example 47, 1-[4-(5-{5-[(R)-(1,3-Dimethyl-azetidin-3-yl)-hydroxy-(4-isopropyl-phenyl)-methyl]-pyridin-3-yl}-2-isopropyl-2H-[1,2,4]triazol-3-yl)-4-hydroxy-piperidin-1-yl]-ethanone], for which the IC50 turned out to be 206 nM.

As to `CN1CC(C)([C@](O)(c2ccc(C3(C(F)(F)F)CC3)cc2)c2cncc(-c3nc(C4CCOCC4)n(C4CC4)n3)c2)C1` [Example 3, (R)-{5-[1-Cyclopropyl-5-(tetrahydro-pyran-4-yl)-1H-[1,2,4]triazol-3-yl]-pyridin-3-yl}-(1,3-dimethyl-azetidin-3-yl)-[4-(1-trifluoromethyl-cyclopropyl)-phenyl]-methanol], the IC50 was determined as 49.8 nM.
